This note sets out measurements from patent US20240100068A1, “METHODS COMPRISING ADMINISTRATION OF A GLUCOCORTICOID RECEPTOR AGONIST AND AN INHIBITOR OF CALCINEURIN” (Chengdu Anticancer Bioscience, Ltd., priority 2022, published 2024).

Like-named read-outs stand apart in the source and are kept apart here.

In one test the test system is MycNick cells. In words: Combination treatment with Hydrocortisone: modulation of HC-induced vacuolation, cell density reduction and CIR effect. The test is classed as cell-based, murine. Conditions: for HC-triggered vacuolation in presence of the compound: added to HC; for sensitization to induction of vacuolation elicited by Hydrocortisone: 10 days, FIG. 16: Cyclosporin A […], Hydrocortisone 0.3 μM; for Cell density reduction by Hydrocortisone / Vacuolation by Hydrocortisone: Combination treatment with Hydrocortisone for 7 days. Here is the method: Exponentially growing MycNick cells were passaged into 24-well plates at a final confluence of 90% and were allowed to attach for 48 hours before being exposed to a cortisol analog in the presence or absence of a calcineurin inhibitor. […] An inverted tissue culture microscope (Leica) was used to document vacuoles in live cells. Cell density was evaluated under an EVOS FL Auto microscope (Thermo Fisher) after fixation of the treated cells with 4% paraformaldehyde (PFA) in the presence of detergent 0.5% Triton X-100 and subsequently staining of DNA with 5 μg/ml of Propidium Iodide (PI) in the presence of 5 μg/ml of Ribonuclease A from bovine pancreas (RNase A) (Sigma, Cat. # R6513-50MG).
The threshold concentration that was used to elicit no less than 50% of reduction in the cell density was determined. So was the minimal effective concentration that could induce vacuolation to an extent that covered no less than 10% of a random field documented under a bright field microscope. Quantification of the area with vacuolation, multilayer zones or multilayer zones was performed with the Image J software. More than 10 random fields were chosen for quantification for each data point in each of two independent experiments.
A chemical library for enhancers of the CIR effect of HC in MycNick cells was screened.

The subject of another test is T2MycNick cells. Nature of the test: Testing compounds for their ability of restoring contact inhibition (vacuolation, cell density). Conditions: for minimal effective concentration: T2MycNick cells grown beyond confluence, 7-14 days; for cell density reduction (in words) / vacuolation (in words): compound alone; for vacuolation (in words): up to 10 μM. Type of test: cell-based, murine.

[1] abbreviates: Mus musculus, PI staining, read-out: Conc that reduces > 50% in the cell density.
Where [2] appears, read: Mus musculus, vacuolation covering no less than 10% of a random field, read-out: Min. effective conc. that elicits vacuolation.
[3] abbreviates: PI staining, read-out: Conc that reduces > 50% in the cell density.
Where [4] appears, read: vacuolation covering no less than 10% of a random field, read-out: Min. effective conc. that elicits vacuolation.

Description for T2MycNick cells: Exponentially growing MycNick cells were passaged into 24-well plates at a final confluence of 90% and were allowed to attach for 48 hours before being exposed to a cortisol analog in the presence or absence of a calcineurin inhibitor. After the initiation of treatment, the cells were allowed to grow beyond confluence for 7 days before being subjected to morphological analysis and cell density. An inverted tissue culture microscope (Leica) was used to document vacuoles in live cells. Cell density was evaluated under an EVOS FL Auto microscope (Thermo Fisher) after fixation of the treated cells with 4% paraformaldehyde (PFA) in the presence of detergent 0.5% Triton X-100 and subsequently staining of DNA with 5 μg/ml of Propidium Iodide (PI) in the presence of 5 μg/ml of Ribonuclease A from bovine pancreas (RNase A) (Sigma, Cat. # R6513-50MG).
Exponentially growing murine cells expressing Myc-Nick (T2MycNick cells) were passaged into 24-well plates at a final confluence of 20% and were allowed to attach overnight before being exposed to a test compound at a concentration of 10 μM. […] The cells were subjected to daily analysis of viability and morphology under an inverted tissue culture microscope or GE InCell Analyzer 2000. Cell density was documented after staining of DNA with PI 7-10 days after the initiation of treatment.

Take `Cn1c(=O)cc(N2CCC[C@@H](N)C2)n(Cc2ccccc2C#N)c1=O` [alogliptin]: the “HC-triggered vacuolation in presence of the compound” value in the test with MycNick cells is recorded as “failed to inhibit”.

Take `C[C@]12C[C@H](O)[C@H]3[C@@H](CCC4=CC(=O)CC[C@@]43C)[C@@H]1CC[C@@H]2C(=O)CO` [CI028, Corticosterone]: the minimal effective concentration in the test with T2MycNick cells (setting [1]) came to 2.5 µM; in the test with T2MycNick cells (setting [2]) it was 0.625 µM.

Regarding `CC(=O)O[C@]1(C(C)=O)CC[C@H]2[C@@H]3C[C@H](C)C4=CC(=O)CC[C@]4(C)[C@H]3CC[C@@]21C` [CI031, Medroxyprogesterone acetate], the minimal effective concentration in the test on T2MycNick cells (setting [3]) and in the test with T2MycNick cells (setting [4]) was 2.5 µM in each case.

On to `C#C[C@]1(O)CC[C@H]2[C@@H]3CCC4=CC(=O)CC[C@]4(C)[C@H]3CC[C@@]21C` [CI032, Ethisterone], for which, in the test on T2MycNick cells (setting [1]), the minimal effective concentration was determined as 10 µM. In addition, the minimal effective concentration with T2MycNick cells (setting [2]) is above 10 µM. In the test on T2MycNick cells, the “cell density reduction (in words)” value is “failed to elicit vacuolation or reduce cell density” and the “vacuolation (in words)” value is on record as “failed to elicit vacuolation”.

In the case of `C#C[C@]1(OC(C)=O)CC[C@H]2[C@@H]3CCC4=C[C@@H](OC(C)=O)CC[C@@H]4[C@H]3CC[C@@]21C` [CI030, Ethynodiol diacetate], the minimal effective concentration in the test with T2MycNick cells (setting [1]) is 5 µM; in the test with T2MycNick cells (setting [2]), above 10 µM. For the same compound, the “cell density reduction (in words)” value in the test on T2MycNick cells is “failed to elicit vacuolation or reduce cell density”. Moreover, the “vacuolation (in words)” value in the test with T2MycNick cells is reported as “failed to elicit vacuolation”.

As for `CC(=O)[C@@]1(O)CC[C@H]2[C@@H]3C[C@H](C)C4=CC(=O)C=C[C@]4(C)[C@@]3(F)[C@@H](O)C[C@@]21C` [CI043, Fluorometholone], the minimal effective concentration in the test with T2MycNick cells (setting [1]) is 2.5 µM; in the test with T2MycNick cells (setting [2]) it was 0.625 µM.

Regarding `CC#CCn1c(N2CCC[C@@H](N)C2)nc2c1c(=O)n(Cc1nc(C)c3ccccc3n1)c(=O)n2C` [linagliptin], the “HC-triggered vacuolation in presence of the compound” value with MycNick cells was “failed to inhibit”.

In the case of `CC1(C)O[C@@H]2C[C@H]3[C@@H]4C[C@H](F)C5=CC(=O)C=C[C@]5(C)[C@@]4(F)[C@@H](O)C[C@]3(C)[C@]2(C(=O)CO)O1` [CI021, Fluocinolone Acetonide], the minimal effective concentration in the test on T2MycNick cells (setting [1]) is 2.5 µM; in the test with T2MycNick cells (setting [2]) it was 0.625 µM.

As for `C[C@]12C=CC(=O)C=C1CC[C@H]1[C@@H]3C[C@@H](O)[C@](O)(C(=O)CO)[C@@]3(C)C[C@H](O)[C@@]12F` [CI047, Triamcinolone], the minimal effective concentration came out at 2.5 µM with T2MycNick cells (setting [1]) and 0.625 µM in the test with T2MycNick cells (setting [2]).

With `C[C@]12CCC3=C4CCC(=O)C=C4CC[C@H]3[C@@H]1CC[C@@]2(O)CC#N` [CI033, Dienogest], the minimal effective concentration with T2MycNick cells (setting [1]) was found to be 10 µM. Also, the minimal effective concentration in the test with T2MycNick cells (setting [2]) is above 10 µM. In addition, in the test on T2MycNick cells, the “cell density reduction (in words)” value is reported as “failed to elicit vacuolation or reduce cell density” and the “vacuolation (in words)” value was “failed to elicit vacuolation”.

As to `CC#C[C@]1(O)CC[C@H]2[C@@H]3CCC4=CC(=O)CCC4=C3[C@@H](c3ccc(N(C)C)cc3)C[C@@]21C` [Mifepristone], the “CIR effect of HC in presence of antagonist” value with MycNick cells (5 μM of Mifepristone) is reported as “completely blocked”. In the test on T2MycNick cells (high-density cells), the “contact inhibition restoration (CIR) activity” value was “failed to elicit”.

For the compound `CC1(C)O[C@@H]2C[C@H]3[C@@H]4CCC5=CC(=O)C=C[C@]5(C)[C@@]4(F)[C@@H](O)C[C@]3(C)[C@]2(C(=O)CO)O1` [CI041, Triamcinolone acetonide], the minimal effective concentration in the test on T2MycNick cells (setting [1]) turned out to be 2.5 µM; with T2MycNick cells (setting [2]), 0.625 µM.

For the compound `CCC(=O)O[C@]1(C(=O)SCF)[C@H](C)C[C@H]2[C@@H]3C[C@H](F)C4=CC(=O)C=C[C@]4(C)[C@@]3(F)[C@@H](O)C[C@@]21C` [CI022, Fluticasone propionate], the results for the minimal effective concentration in the test on T2MycNick cells (setting [1]) and in the test with T2MycNick cells (setting [2]) were 2.5 µM and 0.625 µM, respectively.

As to `C=CC[C@@H]1/C=C(\C)C[C@H](C)C[C@H](OC)[C@H]2O[C@@](O)(C(=O)C(=O)N3CCCC[C@H]3C(=O)O[C@H](/C(C)=C/[C@@H]3CC[C@@H](O)[C@H](OC)C3)[C@H](C)[C@@H](O)CC1=O)[C@H](C)C[C@@H]2OC` [CI046, Tacrolimus], in the test with MycNick cells, the “sensitization to induction of vacuolation elicited by Hydrocortisone” value (“sensitization to induction” below) was “sensitizes”, the “Cell density reduction by Hydrocortisone” value is recorded as “Enhanced” and the “Vacuolation by Hydrocortisone” value is on record as “Enhanced”. Also, in the test on T2MycNick cells, the “vacuolation (in words)” value is “did not elicit vacuolation”.

As to `CC[C@@H]1/C=C(\C)C[C@H](C)C[C@H](OC)[C@H]2O[C@@](O)(C(=O)C(=O)N3CCCC[C@H]3C(=O)O[C@H](/C(C)=C/[C@@H]3CC[C@H](Cl)[C@H](OC)C3)[C@H](C)[C@@H](O)CC1=O)[C@H](C)C[C@@H]2OC` [CI040, Pimecrolimus], in the test on MycNick cells, the “sensitization to induction” value was “sensitizes”, the “Cell density reduction by Hydrocortisone” value was “Enhanced” and the “Vacuolation by Hydrocortisone” value is “Enhanced”. Also, the “vacuolation (in words)” value with T2MycNick cells is given as “did not elicit vacuolation”.

As for `C[C@]12CCC(=O)C=C1CC[C@@H]1[C@@H]2CC[C@@]2(C)[C@H]1CC[C@]2(O)C(=O)CO` [CI049, Cortodoxone], the minimal effective concentration in the test on T2MycNick cells (setting [1]) amounted to 10 µM; in the test with T2MycNick cells (setting [2]) it was 5 µM.

Take `CC[C@@H]1/C=C(\C)C[C@H](C)C[C@H](OC)[C@H]2O[C@@](O)(C(=O)C(=O)N3CCCC[C@H]3C(=O)O[C@H](/C(C)=C/[C@@H]3CC[C@@H](O)[C@H](OC)C3)[C@H](C)[C@@H](O)CC1=O)[C@H](C)C[C@@H]2OC` [CI034, Ascomycin]: in the test on MycNick cells, the “sensitization to induction” value is recorded as “sensitizes”, the “Cell density reduction by Hydrocortisone” value is “Enhanced” and the “Vacuolation by Hydrocortisone” value is recorded as “Enhanced”. Further, in the test on T2MycNick cells, the “vacuolation (in words)” value is “did not elicit vacuolation”.

Take `C[C@@H]1C[C@H]2[C@@H]3CCC4=CC(=O)C=C[C@]4(C)[C@@]3(F)[C@@H](O)C[C@]2(C)[C@@]1(O)C(=O)COP(=O)([O-])[O-].[Na+].[Na+]` [CI039, Dexamethasone 21-phosphate disodium salt]: the results for the minimal effective concentration in the test on T2MycNick cells (setting [3]) and in the test with T2MycNick cells (setting [4]) were 2.5 µM and 0.625 µM, respectively.

As to `C[C@]12C=CC(=O)C=C1CC[C@@H]1[C@@H]2C(=O)C[C@@]2(C)[C@H]1CC[C@]2(O)C(=O)CO` [CI042, Prednisone], the minimal effective concentration is 2.5 µM in the test on T2MycNick cells (setting [1]) and above 10 µM with T2MycNick cells (setting [2]).

Take `CC1(C)O[C@@H]2C[C@H]3[C@@H]4CCC5=CC(=O)C=C[C@]5(C)[C@H]4[C@@H](O)C[C@]3(C)[C@]2(C(=O)CO)O1` [CI020, Desonide]: the figures for the minimal effective concentration with T2MycNick cells (setting [1]) and in the test with T2MycNick cells (setting [2]) were 2.5 µM and 0.625 µM, respectively.

Consider `CC(=O)OCC(=O)[C@@]1(O)CC[C@H]2[C@@H]3CCC4=CC(=O)CC[C@]4(C)[C@H]3[C@@H](O)C[C@@]21C` [HC003, Hydrocortisone 21-acetate], for which the figures for the minimal effective concentration with T2MycNick cells (setting [3]) and in the test on T2MycNick cells (setting [4]) were 2 µM and above 10 µM, respectively.

As for `CC(=O)OCC(=O)[C@@]1(O)[C@H](C)C[C@H]2[C@@H]3CCC4=CC(=O)C=C[C@]4(C)[C@@]3(F)[C@@H](O)C[C@@]21C` [HC005, Dexamethasone 21-acetate], the minimal effective concentration in the test with T2MycNick cells (setting [3]) is on record as 10 µM; with T2MycNick cells (setting [4]), above 10 µM.

In the case of `CC(=O)OCC(=O)[C@@]12OC(C)(C)O[C@@H]1C[C@H]1[C@@H]3C[C@H](F)C4=CC(=O)C=C[C@]4(C)[C@@]3(F)[C@@H](O)C[C@@]12C` [CI048, Fluocinonide], the minimal effective concentration came out at 2.5 µM with T2MycNick cells (setting [1]) and 0.625 µM in the test with T2MycNick cells (setting [2]).

Consider `C[C@@H]1C[C@H]2[C@@H]3CCC4=CC(=O)C=C[C@]4(C)[C@@]3(Cl)[C@@H](O)C[C@]2(C)[C@@]1(OC(=O)c1ccco1)C(=O)CCl` [CI023, Mometasone Furoate], for which the figures for the minimal effective concentration in the test on T2MycNick cells (setting [1]) and with T2MycNick cells (setting [2]) were 2.5 µM and 0.625 µM, respectively.

Take `CCC(=O)OCC(=O)[C@@]1(OC(=O)CC)[C@@H](C)C[C@H]2[C@@H]3CCC4=CC(=O)C=C[C@]4(C)[C@@]3(Cl)[C@@H](O)C[C@@]21C` [CI019, Beclomethasone dipropionate]: the minimal effective concentration in the test on T2MycNick cells (setting [1]) was found to be 2.5 µM; in the test with T2MycNick cells (setting [2]), 0.625 µM.

As for `CCCC(=O)O[C@]1(C(=O)CO)CC[C@H]2[C@@H]3CCC4=CC(=O)CC[C@]4(C)[C@H]3[C@@H](O)C[C@@]21C` [HC004, Hydrocortisone 17-Butyrate], the minimal effective concentration in the test on T2MycNick cells (setting [3]) is listed as 10 µM; in the test with T2MycNick cells (setting [4]), above 10 µM.
